Values of other authors, collected in patent publication US7214684B2, “Methods for the treatment of allergic rhinitis” (Sepracor Inc., priority 1994, dated 2007).

Legend:
H-2 histamine receptor = H-2 histamine receptor (Homo sapiens, UniProt P25021); conditions: H-2 receptor-mediated response
[1] = tested on: melanoma and fibrosarcoma tumors; conditions: Brandes et al. 1994

H-2 histamine receptor, sequence (P25021 whole entry): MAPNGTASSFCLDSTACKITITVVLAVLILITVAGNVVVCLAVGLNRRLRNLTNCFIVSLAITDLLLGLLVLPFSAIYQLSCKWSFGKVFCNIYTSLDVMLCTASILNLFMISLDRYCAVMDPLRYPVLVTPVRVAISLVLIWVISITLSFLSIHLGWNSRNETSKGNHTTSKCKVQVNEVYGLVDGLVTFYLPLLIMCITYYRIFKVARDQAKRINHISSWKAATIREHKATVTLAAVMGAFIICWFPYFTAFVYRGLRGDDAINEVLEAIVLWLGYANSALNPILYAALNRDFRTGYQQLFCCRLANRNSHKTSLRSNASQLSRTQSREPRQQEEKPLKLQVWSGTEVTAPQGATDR

| effect on the chronotropic effect of histamine on atria (H-2 histamine receptor) | Structure (SMILES) | association with tumor growth [1] |
| --- | --- | --- |
| nor does it alter | CCOC(=O)N1CCC(=C2c3ccc(Cl)cc3CCc3cccnc32)CC1 [Loratadine] | associated with growth of both melanoma and fibrosarcoma tumors |
| – | COc1ccc(CCN2CCC(Nc3nc4ccccc4n3Cc3ccc(F)cc3)CC2)cc1 [astemizole] | associated with growth of both melanoma and fibrosarcoma tumors |
